Data from ChEMBL document CHEMBL3885881, “DrugMatrix”.

Organism: Rattus norvegicus
Test: DrugMatrix - Regimen: Daily Repeat
Assay type: toxicity, organism-based, Sprague-Dawley
Parameters: regimen Daily Repeat, gender Male, age 6-8 weeks
Details: in vivo, po, route oral GAVAGE, vehicle 100 % SALINE; for GLUCOSE / LACTATE DEHYDROGENASE / LIPASE / PHOSPHORUS / SODIUM / TOTAL BILIRUBIN / TOTAL PROTEIN / ALANINE AMINOTRANSFERASE / ALBUMIN / ALKALINE PHOSPHATASE / ASPARTATE AMINOTRANSFERASE / BLOOD UREA NITROGEN / CARBON DIOXIDE / CHLORIDE / CHOLESTEROL / CREATINE PHOSPHOKINASE / CREATININE: tissue Plasma; for ABSOLUTE BASOPHIL / ABSOLUTE EOSINOPHIL / ABSOLUTE LYMPHOCYTE / ABSOLUTE MONOCYTE / ABSOLUTE SEGMENTED NEUTROPHIL / BASOPHIL / EOSINOPHIL / ERYTHROCYTE COUNT / HEMATOCRIT / HEMOGLOBIN / LEUKOCYTE COUNT / LYMPHOCYTE / MEAN CORPUSCULAR HEMOGLOBIN / MEAN CORPUSCULAR HEMOGLOBIN CONCENTRATION / MONOCYTE / NEUTROPHIL / NUCLEATED RED BLOOD CELLS / PLATELET COUNT: tissue Blood
[1] = 0 mg/kg, […], dose level Control, time 7 day
[2] = 140 mg/kg, 72 h, dose level Low, time 3 day
[3] = 140 mg/kg, 120 h, dose level Low, time 5 day
[4] = 700 mg/kg, 72 h, dose level Low, time 3 day

For `CN(C)C=O` [DIMETHYLFORMAMIDE], the GLUCOSE [1] was 132.67 mg/dL, the “LACTATE DEHYDROGENASE” value [1] was 107.17 u/L and the LIPASE [1] was 10.5 u/L. The PHOSPHORUS [1] was 10.47 mg/dL, the SODIUM [1] was 140.73 MEQ/L and the “TOTAL BILIRUBIN” value [1] was 0.12 mg/dL. The “TOTAL PROTEIN” value [1] was 6.18 G/DL, the “ABSOLUTE BASOPHIL” value [2] was 0 CELLS/uL and the “ABSOLUTE EOSINOPHIL” value [2] was 31.33 CELLS/uL. The “ABSOLUTE LYMPHOCYTE” value [2] was 5899.33 CELLS/uL, the “ABSOLUTE MONOCYTE” value [2] was 62.67 CELLS/uL and the “ABSOLUTE SEGMENTED NEUTROPHIL” value [2] was 306.67 CELLS/uL. The BASOPHIL [2] was 0%, the EOSINOPHIL [2] was 0.33% and the “ERYTHROCYTE COUNT” value [2] was 4.99 x10E6/uL. For the same compound, the HEMATOCRIT [2] was 31.43%, the HEMOGLOBIN [2] was 12.53 G/DL and the “LEUKOCYTE COUNT” value [2] was 6.3 x10E3/uL. The LYMPHOCYTE [2] was 94.67%, the “MEAN CORPUSCULAR HEMOGLOBIN” value [2] was 25.27 pg and the “MEAN CORPUSCULAR HEMOGLOBIN CONCENTRATION” value [2] was 40.07 G/DL. The MONOCYTE [2] was 0.67%, the NEUTROPHIL [2] was 4.33% and the “NUCLEATED RED BLOOD CELLS” value [2] was 0 /100WBC. For the same compound, the “PLATELET COUNT” value [2] was 734 x10E3/uL, the “ALANINE AMINOTRANSFERASE” value [2] was 52.67 u/L and the ALBUMIN [2] was 4.17 G/DL. For the same compound, the “ALKALINE PHOSPHATASE” value [2] was 264.67 u/L, the “ASPARTATE AMINOTRANSFERASE” value [2] was 88.67 u/L and the “BLOOD UREA NITROGEN” value [2] was 12.33 mg/dL. For the same compound, the “CARBON DIOXIDE” value [2] was 36.67 mmol/L, the CHLORIDE [2] was 97.33 MEQ/L and the CHOLESTEROL [2] was 97.67 mg/dL. The “CREATINE PHOSPHOKINASE” value [2] was 161.33 u/L, the CREATININE [2] was 0.33 mg/dL and the GLUCOSE [2] was 208 mg/dL. The “LACTATE DEHYDROGENASE” value [2] was 181.33 u/L, the LIPASE [2] was 10.67 u/L and the PHOSPHORUS [2] was 11.23 mg/dL. For the same compound, the SODIUM [2] was 148.43 MEQ/L, the “TOTAL BILIRUBIN” value [2] was 0.2 mg/dL and the “TOTAL PROTEIN” value [2] was 6.1 G/DL. The “ABSOLUTE BASOPHIL” value [3] was 0 CELLS/uL, the “ABSOLUTE EOSINOPHIL” value [3] was 0 CELLS/uL and the “ABSOLUTE LYMPHOCYTE” value [3] was 9653 CELLS/uL. The “ABSOLUTE MONOCYTE” value [3] was 169 CELLS/uL, the “ABSOLUTE SEGMENTED NEUTROPHIL” value [3] was 644.67 CELLS/uL and the BASOPHIL [3] was 0%. For the same compound, the EOSINOPHIL [3] was 0%, the “ERYTHROCYTE COUNT” value [3] was 6.77 x10E6/uL and the HEMATOCRIT [3] was 41.07%. The HEMOGLOBIN [3] was 15.33 G/DL, the “LEUKOCYTE COUNT” value [3] was 10.47 x10E3/uL and the LYMPHOCYTE [3] was 93.33%. For the same compound, the “MEAN CORPUSCULAR HEMOGLOBIN” value [3] was 22.63 pg, the “MEAN CORPUSCULAR HEMOGLOBIN CONCENTRATION” value [3] was 37.33 G/DL and the MONOCYTE [3] was 1.67%. The NEUTROPHIL [3] was 5%, the “NUCLEATED RED BLOOD CELLS” value [3] was 0 /100WBC and the “PLATELET COUNT” value [3] was 1170.67 x10E3/uL. For the same compound, the “ALANINE AMINOTRANSFERASE” value [3] was 57.33 u/L, the ALBUMIN [3] was 4.4 G/DL and the “ALKALINE PHOSPHATASE” value [3] was 234.67 u/L. For the same compound, the “ASPARTATE AMINOTRANSFERASE” value [3] was 93.67 u/L, the “BLOOD UREA NITROGEN” value [3] was 17.67 mg/dL and the “CARBON DIOXIDE” value [3] was 34.33 mmol/L. The CHLORIDE [3] was 96.33 MEQ/L, the CHOLESTEROL [3] was 111.33 mg/dL and the “CREATINE PHOSPHOKINASE” value [3] was 195.67 u/L. The CREATININE [3] was 0.19 mg/dL, the GLUCOSE [3] was 171.33 mg/dL and the “LACTATE DEHYDROGENASE” value [3] was 243 u/L. The LIPASE [3] was 11.33 u/L, the PHOSPHORUS [3] was 10.83 mg/dL and the SODIUM [3] was 145.97 MEQ/L. For the same compound, the “TOTAL BILIRUBIN” value [3] was 0.13 mg/dL, the “TOTAL PROTEIN” value [3] was 6.67 G/DL and the “ABSOLUTE BASOPHIL” value [4] was 0 CELLS/uL. For the same compound, the “ABSOLUTE EOSINOPHIL” value [4] was 0 CELLS/uL, the “ABSOLUTE LYMPHOCYTE” value [4] was 7783.67 CELLS/uL and the “ABSOLUTE MONOCYTE” value [4] was 176.17 CELLS/uL. The “ABSOLUTE SEGMENTED NEUTROPHIL” value [4] was 1123.5 CELLS/uL, the BASOPHIL [4] was 0% and the EOSINOPHIL [4] was 0%. The “ERYTHROCYTE COUNT” value [4] was 5.7 x10E6/uL, the HEMATOCRIT [4] was 37.75% and the HEMOGLOBIN [4] was 13.52 G/DL. For the same compound, the “LEUKOCYTE COUNT” value [4] was 9.08 x10E3/uL, the LYMPHOCYTE [4] was 86.17% and the “MEAN CORPUSCULAR HEMOGLOBIN” value [4] was 23.73 pg. For the same compound, the “MEAN CORPUSCULAR HEMOGLOBIN CONCENTRATION” value [4] was 35.83 G/DL, the MONOCYTE [4] was 1.83% and the NEUTROPHIL [4] was 12%. The “NUCLEATED RED BLOOD CELLS” value [4] was 0 /100WBC, the “PLATELET COUNT” value [4] was 951.67 x10E3/uL and the “ALANINE AMINOTRANSFERASE” value [4] was 77.33 u/L.
